Measured values as given in patent publication US20130252930A1 (BIOMARIN PHARMACEUTICAL INC., priority 2010, published 2013).
Read-outs that look alike come from different tables or passages of the source.

Legend:
[1] = Human liver microsome stability assay (Biological Example 8b); details: liver microsomes, pH 7.4
Experimental: The reaction was started with addition of excess NADPH (5 mg/mL, 15 μL in 0.1 M potassium phosphate buffer, 1.0 mM EDTA, pH 7.4), the total volume is 45 μL (compound final concentration was 1 μM). […] 50 μL of the supernatant was transferred from each well into a 96-well sample plate containing 50 μL of ultra-pure water (Millipore) for LC-MS/MS analysis.

[2] = target: T1, Cyp21 enzyme (Human HEK 293-Cyp21 stable transfected cells) (Homo sapiens, UniProt P08686); assay: CYP21-HEK293 enzymatic assay (IC50) (Biological Example 11); type: cell-based; details: HEK 293-Cyp21 cells
T1 construct: expressed in transfected cells
T1 sequence (P08686 1-495): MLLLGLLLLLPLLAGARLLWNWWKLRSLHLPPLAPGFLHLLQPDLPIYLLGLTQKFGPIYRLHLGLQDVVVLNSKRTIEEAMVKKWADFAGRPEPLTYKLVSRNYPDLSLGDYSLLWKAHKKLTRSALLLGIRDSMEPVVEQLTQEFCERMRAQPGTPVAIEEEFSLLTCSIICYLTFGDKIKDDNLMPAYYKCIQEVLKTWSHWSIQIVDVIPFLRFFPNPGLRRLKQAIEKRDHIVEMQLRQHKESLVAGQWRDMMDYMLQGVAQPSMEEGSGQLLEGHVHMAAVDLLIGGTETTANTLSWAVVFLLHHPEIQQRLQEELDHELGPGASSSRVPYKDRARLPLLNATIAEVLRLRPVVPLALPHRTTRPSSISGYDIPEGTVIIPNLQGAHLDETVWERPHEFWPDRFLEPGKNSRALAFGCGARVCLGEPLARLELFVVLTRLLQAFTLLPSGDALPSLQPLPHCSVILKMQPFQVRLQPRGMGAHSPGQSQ
Experimental: This assay was used to determine compound activity against Cyp21 enzyme. […] The next day, 20 μL medium was carefully removed and 10 μL of 10× pre-made compounds in DMEM+10% FBS+10% methanol was transferred to the wells to final concentrations of 1000, 100, 10, 1, or 0.1 nM. Mock treatment was 1% methanol in growth media and the cells were left at 37° C., 5% CO2 for 5 hr. After the incubation, 10 μL of substrate progesterone (Sigma) was added to the wells to make a final concentration of 10 μM. The cells were incubated the cells at 37° C. for 20 hr. At the end of incubation, 90 μL of conditioned media was removed to measure DOC level by ELISA.
The next day, the plates were washed twice with 250 μl of wash solution (0.015M PBS pH 7.4 containing 0.05% Tween 20). After being washed, the wells were blocked with 250 μL blocking buffer (3% BSA in 0.025M PBS, pH 7.4) at 37° C. for 2 h. The plates were washed again 3 times as before, and then 90 μL of sample /standards (prepared in complete growth media) was added into the appropriate wells followed by 10 μL of antibody solution (1:450 rabbit anti-DOC in 0.6% BSA/PBS). The plates were incubated at room temperature for 2 h on a shaker. The contents of the wells were removed and the plate was washed 4 times. After the final wash, 100 μL of secondary antibody (1:12000 HRP-goat-anti-rabbit IgG conjugate 0.6% BSA/PBS) was added into each well. […] The plate was washed again 4 times and 100 μL of TMB substrate solution was added to each well. The plate was incubated at room temperature for 10 min. 100 μL of stop solution was added to each well and the optical density was read at 450 nm.
The mean absorbance value for each sample was used to determine the corresponding concentration from the standard curve. Data was analyzed with “log(antagonist) vs response variable slope” under “non-linear regression analysis” using Prism5 software.

CYP17 (H295R cells) = target: T2, CYP17 (H295R cells) (Homo sapiens, UniProt P05093); assay: CYP17 cellular assay (IC50), testosterone in H295R cells (Biological Example 7); type: cell-based
T2 construct: endogenous in cells; host or cells: H295R cells
T2 sequence (P05093 1-508): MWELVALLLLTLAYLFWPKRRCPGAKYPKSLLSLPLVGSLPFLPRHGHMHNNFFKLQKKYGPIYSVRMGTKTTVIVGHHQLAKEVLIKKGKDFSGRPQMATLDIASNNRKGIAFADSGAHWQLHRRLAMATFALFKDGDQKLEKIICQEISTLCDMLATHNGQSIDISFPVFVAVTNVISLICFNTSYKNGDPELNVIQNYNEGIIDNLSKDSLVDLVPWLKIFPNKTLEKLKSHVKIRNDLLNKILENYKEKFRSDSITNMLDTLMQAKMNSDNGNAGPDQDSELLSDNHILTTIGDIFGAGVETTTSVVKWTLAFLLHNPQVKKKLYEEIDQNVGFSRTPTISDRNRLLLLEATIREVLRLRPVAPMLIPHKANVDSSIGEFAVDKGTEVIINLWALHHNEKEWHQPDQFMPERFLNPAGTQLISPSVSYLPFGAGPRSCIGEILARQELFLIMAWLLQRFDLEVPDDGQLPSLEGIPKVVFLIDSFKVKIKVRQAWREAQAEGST
Experimental: The assays were performed in 96-well plates. Typically H295R cells were seeded at 4.5×10^4 cells/well in 100 μL Growth Medium containing DMEM/F-12 (Gibco/Invitrogen; 11330-032), 2.5% Nu-Serum (BD Bioscience; 355100) and ITS (BD Bioscience; 354352), and cultured at 37° C., 5% CO2 for 24 hr. The next day, media were carefully removed and cells were washed twice with 200 μL 1×HBSS++. Test compounds were then added to the cells at 100, 10, 1, 0.1 nM final concentrations in 125 μL volume per well in serum-free media containing DMEM/F-12 and ITS+ Premix (BD Bioscience; 354352) with 0.1% methanol. Serum-free media with 0.1% methanol without test compound was used as control. Cells were incubated with compounds at 37° C. for additional 24 hours, and the cultured media from each compound treated well was harvested for measurement of testosterone concentration by ELISA according to manufacturer's instruction (Assay Design). Testosterone concentration of each sample was plotted vs. the concentration of the test compounds.

[3] = target: T3, CYP17 (human testicular microsome) (Homo sapiens, UniProt P05093); assay: CYP17 enzymatic assay (% inhibition at 1 nM) (Biological Example 12); type: biochemical; details: compound at 1 nM
T3 construct: using microsomal fraction from human testis (Celsis Cat #S00110) as the enzyme source; tissue Celsis S00110; host or cells: human testis microsomal fraction
T3 sequence (P05093 1-508): T2 sequence (P05093 1-508)

[4] = target: T3, CYP17 (human testicular microsome); assay: CYP17 enzymatic assay (IC50) (Biological Example 4); type: biochemical
[5] = read-out: CYP21-HEK293 enzymatic assay IC50 (Biological Example No. 11)
[6] = H295R cells, testosterone, read-out: CYP17 cellular assay IC50 (Biological Example No. 7)
[7] = read-out: CYP17 enzymatic assay % inhibition at 1 nM (Biological Example No. 12)
[8] = human testicular microsome, read-out: CYP17 enzymatic assay IC50 (Biological Example No. 4)
[9] = read-out: Biological Example No. 11: CYP21-HEK293 enzymatic assay IC50
[10] = H295R cells, testosterone, read-out: Biological Example No. 7: CYP17 cellular assay IC50
[11] = read-out: Biological Example No. 12: CYP17 enzymatic assay % inhibition at 1 nM
[12] = human testicular microsome, read-out: Biological Example No. 4: CYP17 enzymatic assay IC50

With `C[C@]12CC[C@H]3[C@@H](CCC4=CC(=O)C=C[C@@]43C)C1=CC=C2c1cccnc1` [Compound 290, (10R,13S)-10,13-dimethyl-17-(pyridin-3-yl)-6,7,8,9,10,11,12,13-octahydro-3H-cyclopenta[a]phenanthren-3-one] as the compound, how does the half-life at 1 μM [1] read?
Its half-life at 1 μM is 1 to 50 min.

And the IC50 [2, 5]?
The IC50 was 0.01 to 0.1 µM.

And the IC50 (CYP17 (H295R cells); [6])?
The IC50 was < 0.015 µM.

And the inhibition at 0.001 µM [3, 7]?
The inhibition at 0.001 µM was > 50%.

What about the IC50 [4, 8] of the same compound?
The IC50 was < 0.011 µM.

Which results are given for `CC1=C2CC[C@@H]3[C@H](CC[C@]4(C)C(c5cccnc5)=CC[C@@H]34)[C@@]2(C)CCC1=O` [Compound 300, (10R,13S)-4,10,13-trimethyl-17-(pyridin-3-yl)-6,7,8,9,10,11,12,13,14,15-decahydro-1H-cyclopenta[a]phenanthren-3(2H)-one]?
IC50 [2, 9]: > 1 µM; IC50 (CYP17 (H295R cells); [10]): < 0.015 µM; inhibition at 0.001 µM [3, 11]: > 50%; IC50 [4, 12]: < 0.011 µM

What does the source list for `CC1C[C@@H]2[C@H](CC[C@]3(C)C(c4cccnc4)=CC[C@@H]23)[C@@]2(C)CCC(=O)C=C12` (stereo partly drawn) [Compound 309, (10R,13S)-6,10,13-trimethyl-17-(pyridin-3-yl)-6,7,8,9,10,11,12,13,14,15-decahydro-1H-cyclopenta[a]phenanthren-3(2H)-one]?
half-life at 1 μM [1]: 1 to 50 min; IC50 [2, 5]: 0.01 to 0.1 µM; IC50 (CYP17 (H295R cells); [6]): < 0.015 µM; inhibition at 0.001 µM [3, 7]: > 50%; IC50 [4]: < 0.011 µM

Which half-life at 1 μM [1] does the source give for `C=C1C[C@@H]2[C@H](CC[C@]3(C)C(c4cccnc4)=CC[C@@H]23)[C@@]2(C)C=CC(=O)C=C12` [Compound 311, (10R,13S)-10,13-dimethyl-6-methylene-17-(pyridin-3-yl)-6,7,8,9,10,11,12,13,14,15-decahydro-3H-cyclopenta[a]phenanthren-3-one] here?
The half-life at 1 μM was 1 to 50 min.

And the IC50 [2, 5]?
Its IC50 is < 0.01 µM.

And the IC50 (CYP17 (H295R cells); [6])?
The IC50 was < 0.015 µM.

And the inhibition at 0.001 µM [3, 7]?
The inhibition at 0.001 µM was > 50%.

What about the IC50 [4, 8] of the same compound?
The IC50 was < 0.011 µM.

What does the source list for `C=C1C[C@@H]2[C@H](CC[C@]3(C)C(c4cccnc4)=CC[C@@H]23)[C@@]2(C)CCC(=O)C=C12` [Compound 312, (10R,13S)-10,13-dimethyl-6-methylene-17-(pyridin-3-yl)-6,7,8,9,10,11,12,13,14,15-decahydro-1H-cyclopenta[a]phenanthren-3(2H)-one]?
half-life at 1 μM [1]: 1 to 50 min; IC50 [2, 5]: 0.01 to 0.1 µM; IC50 (CYP17 (H295R cells); [6]): < 0.015 µM; inhibition at 0.001 µM [3, 7]: > 50%; IC50 [4, 8]: < 0.011 µM

Which results are given for `CC1C[C@@H]2[C@H](CC[C@]3(C)C(c4cccnc4)=CC[C@@H]23)[C@@]2(C)C=CC(=O)C=C12` (stereo partly drawn) [Compound 318, (10R,13S)-6,10,13-trimethyl-17-(pyridin-3-yl)-6,7,8,9,10,11,12,13,14,15-decahydro-3H-cyclopenta[a]phenanthren-3-one]?
half-life at 1 μM [1]: 1 to 50 min; IC50 [2, 9]: < 0.01 µM; IC50 (CYP17 (H295R cells); [10]): < 0.015 µM; inhibition at 0.001 µM [3, 11]: > 50%

For `C=C1C[C@@H]2[C@H](CC[C@]3(C)C(c4cncc(F)c4)=CC[C@@H]23)[C@@]2(C)C=CC(=O)C=C12` [Compound 320, (10R,13S)-17-(5-fluoropyridin-3-yl)-10,13-dimethyl-6-methylene-6,7,8,9,10,11,12,13,14,15-decahydro-3H-cyclopenta[a]phenanthren-3-one], which half-life at 1 μM [1] is on record?
Its half-life at 1 μM is 1 to 50 min.

And the IC50 [2, 9]?
The IC50 was > 0.1 µM.

What about the IC50 (CYP17 (H295R cells); [10]) of the same compound?
The IC50 was < 0.015 µM.

What about the IC50 [4, 12] of the same compound?
The IC50 was < 0.011 µM.

Which results are given for `CC1CC2C3=CC=C(c4cncc(F)c4)[C@@]3(C)CCC2[C@@]2(C)CCC(=O)C=C12` (stereo partly drawn) [Compound 327, (10R,13S)-17-(5-fluoropyridin-3-yl)-6,10,13-trimethyl-6,7,8,9,10,11,12,13-octahydro-1H-cyclopenta[a]phenanthren-3(2H)-one]?
half-life at 1 μM [1]: 1 to 50 min; IC50 [2, 9]: < 0.01 µM; IC50 (CYP17 (H295R cells)): < 0.015 µM; inhibition at 0.001 µM [3, 11]: 10 to 50%

For `CC1CC2C(CC[C@]3(C)C(c4cncc(F)c4)=CCC23)[C@@]2(C)CCC(=O)C=C12` (stereo partly drawn) [Compound 342, (10R,13S)-17-(5-fluoropyridin-3-yl)-6,10,13-trimethyl-6,7,8,9,10,11,12,13,14,15-decahydro-1H-cyclopenta[a]phenanthren-3(2H)-one], which IC50 [2, 9] is on record?
The IC50 was > 0.1 µM.

And the IC50 (CYP17 (H295R cells); [10])?
Its IC50 is < 0.015 µM.

What about the inhibition at 0.001 µM [3, 11] of the same compound?
Its inhibition at 0.001 µM is > 50%.

What about the IC50 [4, 12] of the same compound?
The IC50 was < 0.011 µM.
